Assay results published in US20240374563A1, “ANTICHOLINERGIC COMPOUNDS FOR USE IN TREATING NEUROMUSCULAR DISORDERS” (UNIVERSITY OF MONTRÉAL, priority 2022, published 2024).

System: SOD1^G37R mice
Test: Body weight loss
Format: in vivo, mouse
Conditions: at P520; treatment from disease onset; N=21
Description: To this end, we monitored the changes in the body weight of the animals, a metric that is directly related to the progression of the disease and survival whereby animals present an important gradual body weight loss after symptoms onset.
The pre-clinial trial design was made according to guidelines for preclinical animal research in ALS/MND [35]. Male mice from the SOD1^G37R background and their WT littermates were included in the preclinical study. Mice were randomly assigned to the experimental or the placebo group. Treatment, behavior monitoring, experiments and results analysis were done blindly. Standard ALS behavioral measurements were performed biweekly to measure disease progression in the various study groups. This includes rotarod test. grip strength measurements, weight measurements and tail suspension test to assess hindlimb extension reflex.

## NC(=O)C(c1ccccc1)(c1ccccc1)[C@@H]1CCN(CCc2ccc3c(c2)CCO3)C1 [darifenacin]
  body weight loss: 20.0±1.9%
